# Reference: patent publication US8466147B2, “Use of reversine and analogs for treatment of cancer” (Dana-Farber Cancer Institute, Inc., priority 2006, dated 2013)
# Tests used:
# [1] = tested on: tumor cell lines, including myeloma, leukemia, lymphoma and thyroid
# Excerpt: Cell lines. ARD, ARH-77, ARK, ARO, ARP-1, BHT101, BHP-10-3, BHP-14-9, BHP-17-10, BHP-18-17, BHP-19-24, BHP2-7, BHP-5, BHP-7, DHL-4, DHL-6, DHL-7, DHL-8, DHL-10, Dox6, EJM, FRO, IM9, INA-6, JJN3, KAT-4, KAT-4B, KAT4C, KAT18, KMS-1, KMS-11, KMS-12BM, KMS-18, KMS-20, KMS-26, KMS-28-BM, KMS-28-PE, KMS-34, KMS-5, L363, LPCL-HO, LRS, MM-AS, MEG-01, MM144, MM-1R, MM-1S, MM1S-Akt, MMSV, Namalwa, NCI-H929, NOP2, NPA, OCI MY1, OCI-MY5, OCI-My7, OPM-1, OPM-2, OPM-6, RPMI8226, S6B45, SKMM2, SW579, SW1736, THLE-3, TK PCL, TT, U266, WM-WSU, WRO, XG1, and ZR-75-1 were grown in either Dulbecco's modified Eagle's medium (DMEM) (BioWhittaker, Walkersville, Md.) or Roswell Park Memorial Institute medium (RPMI) (BioWhittaker) with 100 U/ml penicillin, 100 μg/ml streptomycin and 10% fetal calf serum (FCS) (GIBCO/BRL, Gaithersburg, Md.), unless stated otherwise.
# (§1) MTT cell survival assay. Viability of cells treated with reversine, alone or combined with other agents, was assessed by measuring 3-(4,5-dimethylthiazol-2-yl)-2,5-diphenyl […] bromide (MTT, Chemicon International, Temecula, Calif.) dye absorbance. Cells were pulsed with 1:10 the culture volume of 5 mg/ml MTT to each well for the last 4 hrs of 72 hr cultures, followed by 1.5-3 fold the culture volume of isopropanol containing 0.04N HCl. Absorbance was measured at 570/630 nm using a spectrophotometer (Molecular Devices Corp., Sunnyvale Calif.). Recombinant human IL-6 and IGF (R&D Systems; Minneapolis, Minn.) was used at 10 ng/mL and 50 ng/mL respectively, as indicated. For testing normal PBMCs, healthy donor blood was collected using heparinized tubes, separated by Ficoll (Amersham Biosciences; Sweden) gradient separation and plated at 150,000 cells per well and pre-stimulated, as indicated, with 5 ng/mL PHA (Sigma) for 24 hrs.
# MM cells [2] = settings: combined with dexamethasone (5 nM)
# Procedure: as §1
# MM.1S tumor cell line = tested on: MM.1S tumor cell line
# Procedure: as §1
# hepatocytes = settings: 1 microM, in vitro
# Procedure: as §1
# [3] = tested on: peripheral blood mononuclear cells (PBMCs)
# Procedure: as §1
# [4] = tested on: primary myeloma tumor specimens from heavily pre-treated patients
# Procedure: as §1
# stromal cells = settings: 1 microM, in vitro
# Procedure: as §1
# MM cell lines = settings: reversine 1 μM, washout, then drug-free medium
# Procedure: Cell death commitment assay. The minimum time length of exposure to reversine that is required to commit MM cells to apoptosis was evaluated by incubating cells in 24-well plates with reversine (1 μM) for 1, 2, 4, 8, 16 or 24 hours. At the end of this incubation, the cells were washed 3 times and incubated in drug-free medium for an additional 3 days, resulting in equal length of total incubation for all experimental conditions ([…]), at which point cell survival was quantified by MTT, as above, and expressed as percentage of the value obtained from respective controls.
# [5] = tested on: MM cells (MM.1S, OPM-1 human tumor cells); settings: 1 microM reversine
# Excerpt: Cell cycle analysis. Cell lines, treated with reversine for 0, 2, 4, 8,16, 24, and 48 hrs were stained using a solution of propidium iodide (Sigma) and RNase A following 70% EtOH fixation.
# MM.1S cells = settings: 1 microM reversine, 2-48 hr
# Procedure: Immunoblotting analysis. Immunoblotting was performed by scrapping cells (1×10^6), centrifuged briefly and lysed for 30 min on ice in 50 mM Tris-HCl, pH 8.0, containing 120 mM NaCl and 1% Igepal, supplemented with the Complete-TM mixture of proteinase inhibitors. The samples were cleared by centrifugation (14,000 rpm, 30 min, 4° C.) and assessed for protein concentration. SDS-polyacrylamide gel electrophoresis (12%) was performed (30-50 μg of protein per lane) and the proteins were electroblotted onto PVDF membranes. After 1 hour incubation in blocking solution (5% milk in TBST), the membranes were exposed to primary antibody overnight at 4° C. Following washing in TBST, the respective secondary HRP-labeled antibody was added at 1:20,000 dilution for 1 hr at room temperature. The membrane was then washed with TBST for 45-60 min with multiple changes of the wash buffer. Following washing, the protein expression was visualized using the ECL technique. The primary antibodies used for immunoblotting were purchased from Santa Cruz Biotechnology (Santa Cruz, Calif.), Upstate Biotechnologies (Lake Placid, N.Y.) or Cell Signaling (Beverly, Mass.). Secondary antibodies were purchased from (Jackson ImmunoResearch West Grove, Pa.).
# various kinases = settings: 500 nM
# Procedure: In vitro activity against kinases. Kinase activity was screened using 500 nM of reversine (in 1% DMSO) and ATP using the Invitrogen Z′-LYTE™ kinase assay platform (Invitrogen). In summary, in first reaction the kinase transfers the gamma-phosphate of ATP to a single tyrosine, serine or threonine residue in a synthetic FRET-peptide. In the secondary reaction, a site-specific protease recognizes and cleaves non-phosphorylated FRET-peptides. To calculate kinase activity, the ratio of donor emission to acceptor emission after excitation of the fluorophore at 400 nm was compared.
# various phosphatases = settings: 500 nM
# Procedure: In vitro activity against phosphatases. In vitro phosphatase activity was screened at 500 nM reversine using the DiFMUP technology (Molecular Probes). Briefly, 6,8-difluoro-4-methylumbelliferyl phosphate substrate is combined with ATP and drug. The removal of the phosphate group on 6,8-difluoro-4-methylumbelliferyl yields a more fluorescent version of the substrate than the non-hydrolyzed form. The amount of fluorescent signal directly corresponds to the level of phosphatase activity.
# [6] = tested on: GFP-luc expressing MM.1R cells; settings: 72 hrs, luciferase readout
# Procedure: (§2) Activity against myeloma cells in co-culture with bone marrow stromal cells. Co-culture Stromal cells were plated at a density of 10,000 cells per well in optical 96-well plates and were incubated for 24 hrs to allow for attachment. Tumor cell lines stably expressing luciferase were plated at 1500 cells per well. Cells were treated immediately following plating and incubated for 72 hrs. Luciferin substrate was added to cultures, mixed, and incubated at room temperature. Samples were read using a Luminoskan luminometer (Labsystems, Ramsey, Minn.).
# [7] = tested on: GFP-luc expressing MM.1S cells; settings: 72 hrs, luciferase readout
# Procedure: as §2
# MR20 myeloma cells = settings: 72 hours
# Procedure: Treatment of reversine in the Side Populations of MR20 myeloma cells. MR20 cells were plated at a density of 1×10*5 cells/mL in RPMI media supplemented with Pen/Strep and 10% FBS. Reversine was added to the cells at a range of concentrations, the cells were then incubated for 72 hrs at 37 degrees C. Following the incubation period, the cells were collected and stained with Hoescht, and counter stained with 7-AAD. Reserpine, a inhibitor of the membrane transporter, was added to a sample of control cells to identify the “side population” cells (control). The samples were then analyzed on a BD FACS Aria with a UV laser to excite the Hoescht stain. The samples were first gated on the cellular fraction (by forward and side scatter), then on the viable cells (7-AAD negative), then on the Hoescht-Blue negative Hoescht-Red negative fraction representing the Side Population.
# chicken B-cell line DT40 = settings: FIG. 13
# OPM2 cells = settings: oral gavage, 1 mg/kg twice weekly
# Excerpt: Anti-myeloma activity in animals. […] Briefly, male (6 to 8-week old) SCID/Beige mice, housed and monitored in the Animal Research Facility of the Dana-Farber Cancer Institute, were irradiated (300 rads) using Cs^137 gamma-irradiator source, and received (24 hrs post-irradiation) tail i.v. injections of 10^6 OPM2 cells suspended in total volume of 200 microL of phosphate buffered saline (PBS) per mouse. Mice were monitored for changes in body weight and signs of infection or paralysis. In accordance with institutional guidelines, mice were sacrificed by CO2 inhalation in the event of paralysis or major compromise in their quality of life. All experimental procedures and protocols had been approved by the Animal Care and Use Committee of the Dana-Farber Cancer Institute. Overall survival (defined as time between i.v. injection of tumor cells and sacrifice or death) was compared in control vs. 1 mg/mg reversine-treated (P.O. twice weekly) mice by Kaplan-Meier method.
# MM cells [8] = assay: Anti-MM activity of reversine analog; assay type: cell-based; settings: FIG. 14
# Procedure: MTT cell survival assay. Viability of cells treated with reversine, alone or combined with other agents, was assessed by measuring 3-(4,5-dimethylthiazol-2-yl)-2,5-diphenyl tetrasodium bromide (MTT, Chemicon International, Temecula, Calif.) dye absorbance. Cells were pulsed with 1:10 the culture volume of 5 mg/ml MTT to each well for the last 4 hrs of 72 hr cultures, followed by 1.5-3 fold the culture volume of isopropanol containing 0.04N HCl. Absorbance was measured at 570/630 nm using a spectrophotometer (Molecular Devices Corp., Sunnyvale Calif.). Recombinant human IL-6 and IGF (R&D Systems; Minneapolis, Minn.) was used at 10 ng/mL and 50 ng/mL respectively, as indicated. For testing normal PBMCs, healthy donor blood was collected using heparinized tubes, separated by Ficoll (Amersham Biosciences; Sweden) gradient separation and plated at 150,000 cells per well and pre-stimulated, as indicated, with 5 ng/mL PHA (Sigma) for 24 hrs.
structure (smiles),measurement,setting,value
"c1nc2nc(Nc3ccc(N4CCOCC4)cc3)nc(NC3CCCCC3)c2[nH]1 [reversine, 2-(4-morpholinoanilino)-6-cyclohexylaminopurine]",concentration with significant anti-tumor activity,[1]; in many cases,≤ 1 µM
same,anti-tumor effects in tumor cell lines,"[1]; myeloma, leukemia, lymphoma and thyroid lines, FIG. 1",anti-tumor effects in a broad range of tumor cell lines
same,"anti-tumor effect, potency in words",[1]; subset of MM cell lines,sub-micro molar anti-tumor effect
same,survival rate,"[1]; wide variety of tumor cell lines, reversine between 1 and 10 μM, 72 hour exposure",0%
same,anti-MM activity of combination,MM cells [2],greater than additive
same,difference in normalized effect with versus without cytokines,MM.1S tumor cell line; 10 μM reversine,virtually no difference
same,tumor cell viability,"MM.1S tumor cell line; presence or absence of cytokines (IL-6, IGF)",dose dependent decrease in tumor cell viability
same,toxicity to hepatocytes,hepatocytes,minimal toxicity
same,toxicity to PBMCs stimulated with phytohaemagglutinin,"[3]; PHA-stimulated, in vitro",limited toxicity
same,toxicity to PBMCs,"[3]; unstimulated, doses as high as 10 microM",does not cause major toxicity
same,dose with anti-MM activity,[4],≤ 1 µM
same,toxicity to stromal cells,stromal cells,minimal toxicity
same,treatment time that commits cells to death,MM cell lines,less than 24 hrs
same,exposure time after which the sub-G0 fraction increases,[5],more than 16 hr
same,time of G2 arrest after initial exposure,[5],8 to 16 h
same,B-raf and Akt levels,MM.1S cells,inhibition of B-raf and Akt levels
same,"apoptosis markers (caspase 3, PARP)",MM.1S cells,cleavge of caspase 3 and PARP
same,effect on chaperone proteins Hsp70 and Hsp90,MM.1S cells,minimal affects
same,"phospho-specific proteins (phospho-Akt, phospho-MEK, phospho-MAPK, phospho-IKB, phospho-p70S6K)",MM.1S cells; no increase in total protein levels,increased levels
same,inhibition of kinase activity,various kinases,inhibition of kinase activity was observed
same,inhibition of phosphatase activity,various phosphatases,inhibition of phosphatase activity was not seen
same,sensitivity in co-culture with bone marrow stromal cells,[6],increased
same,sensitivity in co-culture with bone marrow stromal cells,[7],increased
same,sensitivity of side population (SP) cells versus main population,MR20 myeloma cells,more sensitive than the main population
same,percentage of SP cells,MR20 myeloma cells; increasing concentrations,decreased with increasing doses
same,sensitivity of syk-expressing versus syk-/- DT40 cells,chicken B-cell line DT40,more sensitive
same,survival compared to control mice,OPM2 cells,Survival was extended
c1nc2nc(NC3CCCCC3)nc(Nc3ccc(N4CCOCC4)cc3)c2[nH]1 [retreversine],anti-MM activity in comparison with reversine,MM cells [8],reduced activity
